Results as given in patent EP4737445A1, “NOVEL SATURATED HETEROCYCLE-SUBSTITUTED HETEROARYL-CARBONOHYDRAZONOYL DICYANIDE COMPOUND AND USE THEREOF” (Korea Institute of Science and Technology, priority 2023, dated 2025).
Like-named read-outs stand apart in the source and are kept apart here.

Columns and labels:
Tau = target: T1, Tau (Homo sapiens, UniProt P10636); experiment: Tau aggregation inhibition in Tau-BiFC cell model (Forskolin-induced); assay type: cell-based
T1 construct: BiFC fluorescent-protein fragments (two complementary halves on two tau copies); expressed in transfected cells
In short: (§1)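 Tau-BiFC cells were co-treated with compound (1, 3, 10 µM for screening; 0.03–30 µM for IC50) and 30 µM Forskolin for 48 h. BiFC fluorescence was normalised to the Forskolin-only window for aggregation; viability came from Hoechst-stained nuclei counts relative to Forskolin-only (100%). IC50 was derived by nonlinear regression.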

Tau-BiFC cells = experiment: Cell viability (stained nuclei count) in Tau-BiFC cells; assay type: cell-based; details: @10 µM; Tau-BiFC cell line; Forskolin-only group = 100%
In short: as §1

[1] = Liver microsomal stability, human; assay type: in vitro ADME; details: 1 µM compound; 0.5 mg/mL microsomes; NADPH; 30 minutes at 37°C
Procedure: Liver microsomal stability by the compounds prepared according to Examples 1 to 46 was confirmed. Specifically, four types of liver microsomes (human, dog, rat, and mouse each at 0.5 mg/mL), 0.1 M phosphate buffer solution (pH 7.4), and the compounds at 1 µM concentration were added and pre-incubated at 37°C for 5 minutes, and then NADPH generation system solution was added and incubated at 37°C for an additional 30 minutes. Thereafter, an acetonitrile solution containing an internal standard (chloropropamide) was added to terminate the reaction, and after centrifugation for 5 minutes (14,000 rpm, 4°C), the supernatant was injected into an LC-MS/MS system to analyze the substrate drug, thereby evaluating the metabolic stability of 8 compounds.
The amount of remaining substrate through the reaction was analyzed using a Shimadzu Nexera XR system and TSQ vantage (Thermo). A Kinetex XB-C18 (2.1 × 100 mm, 2.6 µm, particle size; Phenomenex, USA) was used as the HPLC column, and (A) distilled water containing 0.1% formic acid and (B) acetonitrile containing 0.1% formic acid were used as mobile phases. Analyst software (version 1.6.3) and Xcalibur (version 1.6.1) were used for data analysis. The calculated results are shown in Table 5 below: Liver microsomal stability data of novel compounds from […] (human, rat, and mouse).

CYP1A2 = target: T2, CYP1A2 (Homo sapiens, UniProt P05177); experiment: CYP isoenzyme activity inhibition in human liver microsomes, CYP1A2; assay type: in vitro ADME; details: 10 µM compound; human liver microsomes 0.25 mg/mL; relative to control without compound
T2 construct: human liver microsomes (0.25 mg/mL); from tissue; host or cells: human liver microsomes
T2 sequence (P05177 1-516): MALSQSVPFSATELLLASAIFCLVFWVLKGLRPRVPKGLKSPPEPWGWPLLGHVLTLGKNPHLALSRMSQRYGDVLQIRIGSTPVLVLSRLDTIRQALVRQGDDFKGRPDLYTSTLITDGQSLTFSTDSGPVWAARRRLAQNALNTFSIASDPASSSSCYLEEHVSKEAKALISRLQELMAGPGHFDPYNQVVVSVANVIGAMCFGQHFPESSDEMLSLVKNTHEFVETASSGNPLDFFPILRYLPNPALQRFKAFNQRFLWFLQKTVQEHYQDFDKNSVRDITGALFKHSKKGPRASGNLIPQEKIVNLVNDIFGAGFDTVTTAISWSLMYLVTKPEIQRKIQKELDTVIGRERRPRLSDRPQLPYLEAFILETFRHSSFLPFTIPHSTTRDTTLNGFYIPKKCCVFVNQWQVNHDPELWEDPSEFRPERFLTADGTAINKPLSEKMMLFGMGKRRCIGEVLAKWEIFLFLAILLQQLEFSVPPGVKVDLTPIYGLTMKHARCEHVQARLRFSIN
Procedure: The CYP isoenzyme activity inhibitory effect by the compounds prepared according to Examples 1 to 46 was confirmed. Specifically, human liver microsomes (0.25 mg/mL), 0.1 M phosphate buffer solution (pH 7.4), a substrate drug cocktail of five drug metabolizing enzymes (Phenacetin 50 µM, Diclofenac 10 µM, S-mephenytoin 100 µM, Dextromethorphan 5 µM, and Midazolam 2.5 µM), and the compounds were added at concentrations of 0 or 10 µM, respectively, and pre-incubated at 37°C for 5 minutes, and then NADPH generation system solution was added and incubated at 37°C for an additional 15 minutes. Thereafter, an acetonitrile solution containing an internal standard (Terfenadine) was added to terminate the reaction, and after centrifugation for 5 minutes (14,000 rpm, 4°C), the supernatant was injected into an LC-MS/MS system to simultaneously analyze the metabolites of the substrate drugs, thereby evaluating the drug metabolizing enzyme inhibitory activity.
The metabolites of each CYP isoenzyme marker drug generated through the reaction were analyzed using a Shimadzu Nexera XR system and TSQ vantage (Thermo). A Kinetex C18 (2.1 × 100 mm, 2.6 µm, particle size; Phenomenex, USA) was used as the HPLC column, and (A) distilled water containing 0.1% formic acid and (B) acetonitrile containing 0.1% formic acid were used as mobile phases, and a gradient program as shown in Table 6 below was applied.
The generated metabolites were quantified using MRM (Multiple Reaction Monitoring) quantitative mode, and Xcalibur (version 1.6.1) was used for data analysis. To show the CYP isoenzyme activity inhibitory effect of the novel compounds prepared according to the Examples of the disclosure, the % activity of CYP isoenzymes relative to the control group without compound addition is shown in Table 6 below. Additionally, to confirm the difference in effect according to substituents, Comparative Compounds 1 and 5, which are two compounds that share a similar parent nucleus structure with Compounds 1 to 46 of the disclosure while Cy is substituted with aromatic heteroaryl instead of saturated heterocyclyl, were selected as comparative compounds and their activities are shown together.

[2] = read-out: Tau aggregation inhibitory effect IC50, Tau-BiFC cell line, Forskolin 30 µM, 48 hours, 0.03-30 µM

T1 sequence (P10636 1-441 isoform P10636-8): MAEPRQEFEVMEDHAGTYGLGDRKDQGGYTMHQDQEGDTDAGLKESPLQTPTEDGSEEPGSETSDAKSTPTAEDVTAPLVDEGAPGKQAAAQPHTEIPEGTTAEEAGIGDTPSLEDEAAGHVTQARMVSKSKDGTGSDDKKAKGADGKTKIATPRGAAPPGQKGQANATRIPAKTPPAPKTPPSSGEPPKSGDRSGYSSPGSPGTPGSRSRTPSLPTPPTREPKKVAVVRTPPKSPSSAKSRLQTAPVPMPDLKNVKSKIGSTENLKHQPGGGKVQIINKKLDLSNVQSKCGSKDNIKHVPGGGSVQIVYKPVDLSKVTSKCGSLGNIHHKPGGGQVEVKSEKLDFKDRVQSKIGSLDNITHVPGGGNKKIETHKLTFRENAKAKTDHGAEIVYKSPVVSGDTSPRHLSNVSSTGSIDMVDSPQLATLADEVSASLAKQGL

SMILES: CC1CN(C(=O)Nc2nc3ccc(NN=C(C#N)C#N)cc3s2)CC(C)O1 (stereo not drawn) [Compound 39, (2-(2,6-dimethylmorpholine-4-carboxamido)benzo[d]thiazol-6-yl)carbonohydrazonoyl dicyanide]
- IC50 (Tau): 44 nM
- Cell viability (% @10µM) (Tau-BiFC cells): 98%
- Human microsomes (% remaining) [1]: 83.8 % remaining
- CYP1A2 (% activity) (CYP1A2): 84 % activity

SMILES: CC1CN(c2nc3ccc(NN=C(C#N)C#N)cc3o2)CCO1 (stereo not drawn) [Compound 15, (2-(2-methylmorpholino)benzo[d]oxazol-6-yl)carbonohydrazonoyl dicyanide]
- IC50 (Tau): 48 nM
- Cell viability (% @10µM) (Tau-BiFC cells): 100%
- Human microsomes (% remaining) [1]: > 100 % remaining
- CYP1A2 (% activity) (CYP1A2): 80.2 % activity

SMILES: CN1CCN(c2nc3ccc(NN=C(C#N)C#N)cc3s2)CC1 [Compound 8, (2-(4-methylpiperazin-1-yl)benzo[d]thiazol-6-yl)carbonohydrazonoyl dicyanide]
- IC50 (Tau): 32 nM
- Cell viability (% @10µM) (Tau-BiFC cells): 101%
- Human microsomes (% remaining) [1]: 83.9 % remaining
- CYP1A2 (% activity) (CYP1A2): 91.8 % activity

SMILES: CC1CN(c2nc3ccc(NN=C(C#N)C#N)cc3s2)CC(C)O1 (stereo not drawn) [Compound 10, (2-(2,6-dimethylmorpholino)benzo[d]thiazol-6-yl)carbonohydrazonoyl dicyanide]
- IC50 (Tau): 24 nM
- Cell viability (% @10µM) (Tau-BiFC cells): 109%
- Human microsomes (% remaining) [1]: 69.4 % remaining
- CYP1A2 (% activity) (CYP1A2): 68.4 % activity

SMILES: CC(=O)N1CCN(c2nc3ccc(NN=C(C#N)C#N)cc3o2)CC1 [Compound 31, (2-(4-acetylpiperazin-1-yl)benzo[d]oxazol-6-yl)carbonohydrazonoyl dicyanide]
- IC50 (Tau): 88 nM
- Cell viability (% @10µM) (Tau-BiFC cells): 100%
- Human microsomes (% remaining) [1]: 99.9 % remaining
- CYP1A2 (% activity) (CYP1A2): 92.7 % activity

SMILES: COC1CCN(c2nc3ccc(NN=C(C#N)C#N)cc3s2)CC1 [Compound 9, (2-(4-methoxypiperidin-1-yl)benzo[d]thiazol-6-yl)carbonohydrazonoyl dicyanide]
- IC50 (Tau): 36 nM
- Cell viability (% @10µM) (Tau-BiFC cells): 100%
- Human microsomes (% remaining) [1]: 5.0 % remaining
- CYP1A2 (% activity) (CYP1A2): 68.9 % activity

SMILES: N#CC(C#N)=NNc1ccc2sc(N3CCOCC3)nc2c1 [Compound 1, (2-morpholinobenzo[d]thiazol-5-yl)carbonohydrazonoyl dicyanide]
- IC50 (Tau): 12 nM
- Cell viability (% @10µM) (Tau-BiFC cells): 100%
- Human microsomes (% remaining) [1]: 91.2 % remaining
- CYP1A2 (% activity) (CYP1A2): 80.2 % activity

SMILES: N#CC(C#N)=NNc1ccc2nc(N3CC4CCC(C3)O4)sc2c1 [Compound 23, (2-(8-oxa-3-azabicyclo[3.2.1]octan-3-yl)benzo[d]thiazol-6-yl)carbonohydrazonoyl dicyanide]
- IC50 (Tau): 48 nM
- Cell viability (% @10µM) (Tau-BiFC cells): 92%
- Human microsomes (% remaining) [1]: 85.6 % remaining
- CYP1A2 (% activity) (CYP1A2): 70.6 % activity

SMILES: N#CC(C#N)=NNc1ccc2nc(N3CC[C@@H](F)C3)oc2c1 [Compound 41, (R)-(2-(3-fluoropyrrolidin-1-yl)benzo[d]oxazol-6-yl)carbonohydrazonoyl dicyanide]
- IC50 (Tau; [2]): 260 nM
- Cell viability (% @10µM) (Tau-BiFC cells): 100%
- Human microsomes (% remaining) [1]: 70.0 % remaining
- CYP1A2 (% activity) (CYP1A2): 71.9 % activity

SMILES: Cn1c(N2C3CCC2COC3)nc2cc(NN=C(C#N)C#N)ccc21 [Compound 35, (2-(3-oxa-8-azabicyclo[3.2.1]octan-8-yl)-1-methyl-1H-benzo[d]imidazol-5-yl)carbonohydrazonoyl dicyanide]
- IC50 (Tau): 12 nM
- Cell viability (% @10µM) (Tau-BiFC cells): 100%
- Human microsomes (% remaining) [1]: 94.3 % remaining
- CYP1A2 (% activity) (CYP1A2): 81.5 % activity

SMILES: Cn1c(N2CCOCC2)nc2cc(NN=C(C#N)C#N)ccc21 [Compound 6, (1-methyl-2-morpholino-1H-benzo[d]imidazol-5-yl)carbonohydrazonoyl dicyanide]
- IC50 (Tau): 24 nM
- Cell viability (% @10µM) (Tau-BiFC cells): 104%
- Human microsomes (% remaining) [1]: 90 % remaining
- CYP1A2 (% activity) (CYP1A2): 92.3 % activity

SMILES: N#CC(C#N)=NNc1ccc2nc(NC(=O)N3CC4CCC(C3)O4)sc2c1 [Compound 40, (2-(8-oxa-3-azabicyclo[3.2.1]octane-3-carboxamido)benzo[d]thiazol-6-yl)carbonohydrazonoyl dicyanide]
- IC50 (Tau; [2]): 316 nM
- Cell viability (% @10µM) (Tau-BiFC cells): 98%
- Human microsomes (% remaining) [1]: 94.2 % remaining
- CYP1A2 (% activity) (CYP1A2): 80.2 % activity

SMILES: CC1CN(c2nc3ccc(NN=C(C#N)C#N)cc3o2)CC(C)O1 (stereo not drawn) [Compound 18, (2-(2,6-dimethylmorpholino)benzo[d]oxazol-6-yl)carbonohydrazonoyl dicyanide]
- IC50 (Tau): 128 nM
- Cell viability (% @10µM) (Tau-BiFC cells): 100%
- Human microsomes (% remaining) [1]: 95.8 % remaining
- CYP1A2 (% activity) (CYP1A2): 98.9 % activity

SMILES: N#CC(C#N)=NNc1ccc2nc(N3C4CCC3COC4)sc2c1 [Compound 11, (2-(3-oxa-8-azabicyclo[3.2.1]octan-8-yl)benzo[d]thiazol-6-yl)carbonohydrazonoyl dicyanide]
- IC50 (Tau): 32 nM
- Cell viability (% @10µM) (Tau-BiFC cells): 100%
- Human microsomes (% remaining) [1]: 81.3 % remaining
- CYP1A2 (% activity) (CYP1A2): 83.7 % activity

SMILES: COC1CCN(c2nc3ccc(NN=C(C#N)C#N)cc3o2)CC1 [Compound 17, (2-(4-methoxypiperidin-1-yl)benzo[d]oxazol-6-yl)carbonohydrazonoyl dicyanide]
- IC50 (Tau): 88 nM
- Cell viability (% @10µM) (Tau-BiFC cells): 100%
- Human microsomes (% remaining) [1]: 16.7 % remaining
- CYP1A2 (% activity) (CYP1A2): 83.2 % activity

SMILES: CC1COCCN1c1nc2ccc(NN=C(C#N)C#N)cc2s1 (stereo not drawn) [Compound 13, (2-(3-methylmorpholino)benzo[d]thiazol-6-yl)carbonohydrazonoyl dicyanide]
- IC50 (Tau): 20 nM
- Cell viability (% @10µM) (Tau-BiFC cells): 99%
- Human microsomes (% remaining) [1]: 79.9 % remaining
- CYP1A2 (% activity) (CYP1A2): 83 % activity

SMILES: CC(C)N1CCN(c2nc3ccc(NN=C(C#N)C#N)cc3o2)CC1 [Compound 28, (2-(4-isopropylpiperazin-1-yl)benzo[d]oxazol-6-yl)carbonohydrazonoyl dicyanide]
- IC50 (Tau): 16 nM
- Cell viability (% @10µM) (Tau-BiFC cells): 99%
- Human microsomes (% remaining) [1]: 11.7 % remaining
- CYP1A2 (% activity) (CYP1A2): 95.5 % activity

SMILES: CC1CN(c2nc3ccc(NN=C(C#N)C#N)cc3s2)CCO1 (stereo not drawn) [Compound 12, (2-(2-methylmorpholino)benzo[d]thiazol-6-yl)carbonohydrazonoyl dicyanide]
- IC50 (Tau): 32 nM
- Cell viability (% @10µM) (Tau-BiFC cells): 102%
- Human microsomes (% remaining) [1]: 62.7 % remaining
- CYP1A2 (% activity) (CYP1A2): 74.9 % activity
